How the values were obtained:
[1] = target: T1, sterol 14-demethylase (NfCYP51) (Naegleria fowleri, UniProt A0A2H4A2U9); assay: co-crystal structure at […] Å; UV-vis type II titration; type: binding
T1 construct: gene NF0102700; 34 N-terminal membrane anchoring residues replaced with MAKKTSSKGKL
T1 sequence (A0A2H4A2U9 12-460): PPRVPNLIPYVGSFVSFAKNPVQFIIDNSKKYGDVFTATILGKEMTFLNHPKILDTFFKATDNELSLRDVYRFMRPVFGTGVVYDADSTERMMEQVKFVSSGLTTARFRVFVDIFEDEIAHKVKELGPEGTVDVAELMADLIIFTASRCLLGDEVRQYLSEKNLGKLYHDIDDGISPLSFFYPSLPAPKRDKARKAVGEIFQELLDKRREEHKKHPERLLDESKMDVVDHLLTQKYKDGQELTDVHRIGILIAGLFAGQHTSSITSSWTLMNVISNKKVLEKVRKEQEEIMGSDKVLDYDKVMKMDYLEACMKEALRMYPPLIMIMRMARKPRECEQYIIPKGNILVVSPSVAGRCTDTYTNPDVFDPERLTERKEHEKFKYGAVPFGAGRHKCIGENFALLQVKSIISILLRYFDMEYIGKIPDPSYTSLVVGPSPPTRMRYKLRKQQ

[2] = target: T1, sterol 14-demethylase (NfCYP51); assay: UV-vis spectral binding titration (type I difference spectrum)

| SMILES | co-crystal structure at 2.70 Å; UV-vis type II titration [1] | Kd [2] [nM] |
| --- | --- | --- |
| OC(Cn1cncn1)(Cn1cncn1)c1ccc(F)cc1F [Fluconazole] | fluconazole, binds NfCYP51 with affinity roughly an order of magnitude exceeding that of natural substrate, 31-norlanosterol | – |
| CC(C)=CCC[C@@H](C)[C@H]1CC[C@@]2(C)C3=C(CC[C@]12C)[C@@]1(C)CC[C@H](O)[C@@H](C)[C@@H]1CC3 [compound 14, 31-Norlanosterol] | – | 124 ± 25 |

From publication PMC5746216, “CYP51 is an essential drug target for the treatment of primary amoebic meningoencephalitis (PAM)” (PLoS Neglected Tropical Diseases, 2017)
